Where two headings read alike, the source gives them in different places.
Experiments:
[1] = target: T1, A2BAR (Homo sapiens, UniProt P29275); test: cAMP accumulation in T24 cells endogenously expressing the A2BAR
T1 sequence (P29275 1-332): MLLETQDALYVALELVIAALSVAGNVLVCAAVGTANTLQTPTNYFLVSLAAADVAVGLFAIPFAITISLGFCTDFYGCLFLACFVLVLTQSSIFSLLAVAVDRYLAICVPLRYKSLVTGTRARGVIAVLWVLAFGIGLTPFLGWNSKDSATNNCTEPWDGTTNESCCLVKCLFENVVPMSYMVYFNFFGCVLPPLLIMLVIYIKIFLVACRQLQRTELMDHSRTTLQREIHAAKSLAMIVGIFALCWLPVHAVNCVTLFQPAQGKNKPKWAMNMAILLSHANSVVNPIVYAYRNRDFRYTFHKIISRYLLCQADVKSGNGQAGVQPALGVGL

[2] = target: T2, mouse A2BAR (Mus musculus, UniProt Q60614); test: β-Arrestin2 translocation in PathHunter CHO cells
T2 sequence (Q60614 1-332): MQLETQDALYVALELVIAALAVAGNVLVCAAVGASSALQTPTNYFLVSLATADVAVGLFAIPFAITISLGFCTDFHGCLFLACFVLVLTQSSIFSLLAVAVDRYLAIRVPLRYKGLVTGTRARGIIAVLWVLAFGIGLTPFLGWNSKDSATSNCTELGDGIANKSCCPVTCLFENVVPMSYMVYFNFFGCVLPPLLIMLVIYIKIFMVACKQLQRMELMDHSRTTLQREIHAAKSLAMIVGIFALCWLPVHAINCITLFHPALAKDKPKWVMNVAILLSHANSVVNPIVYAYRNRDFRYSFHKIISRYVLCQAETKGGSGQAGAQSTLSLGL

[3] = tested on: mouse A2BAR; test: β-Arrestin2 translocation in PathHunter CHO cells
[4] = target: T1, A2BAR; test: Intracellular calcium mobilization in T24 cells; conditions: T-24, read-out: Max effect Calcium (% of effect of NECA)
[5] = target: T1, A2BAR; test: ERK1/2 phosphorylation in HEK293 cells
[6] = target: T1, A2BAR; test: cAMP accumulation in HEK293 cells endogenously expressing the A2BAR
[7] = target: T1, A2BAR; test: ERK1/2 phosphorylation in T24 cells
[8] = target: T1, A2BAR
[9] = target: T1, A2BAR; test: cAMP accumulation in HEK293 cells overexpressing the A2BAR
[10] = target: T1, A2BAR; test: Intracellular calcium mobilization in HEK293 cells; conditions: HEK293, read-out: Max effect Calcium (% of effect of NECA)
[11] = tested on: A2BAR; test: cAMP accumulation in COS-7 cells endogenously expressing the A2BAR
[12] = target: T1, A2BAR; test: ERK1/2 phosphorylation in HEK293 cells overexpressing the A2BAR
[13] = target: T1, A2BAR; test: cAMP accumulation in 1321N1 astrocytoma cells endogenously expressing the A2BAR
[14] = tested on: MIN-6 mouse pancreatic β cells; test: Insulin release in MIN6 cells; format: cell-based; conditions: MIN-6 cells, 16.7 mM glucose, 1 h
[15] = target: T1, A2BAR; test: Intracellular calcium mobilization in HEK293 cells overexpressing the A2BAR
[16] = target: T1, A2BAR; test: cAMP accumulation in WM266 melanoma cells endogenously expressing the A2BAR; conditions: WM266, read-out: Max effect cAMP accumulation
[17] = HEK293, read-out: Max effect ERK1/2 (% of effect of NECA)
[18] = HEK293, read-out: Max effect cAMP (% of effect of NECA)

N#Cc1c(N)nc(SCC(N)=O)c(C#N)c1-c1ccc(OCC2CC2)cc1 [BAY, 2-[[6-amino-3,5-dicyano-4-[4-(cyclopropylmethoxy)phenyl]-2-pyridinyl]thio]acetamide]
EC50 ([1]; EC50 cAMP accumulation, T24 cells, 5 nM A2BAR siRNA): 102 ± 17 nM
EC50 ([1]; EC50 cAMP accumulation, T24 cells, 50 nM A2BAR siRNA): 127 ± 31 nM
EC50 ([1]; EC50 cAMP accumulation, T24 cells, 500 nM A2BAR siRNA): 93 ± 19 nM
EC50 ([1]; EC50 cAMP accumulation, T24 cells, absence of A2BAR siRNA): 98 ± 22 nM
EC50 ([1]; EC50 cAMP, T24 cells): 43 ± 17.7 nM
maximum agonist effect, cAMP accumulation (NECA as 100%) ([1]; T24 cells, 5 nM A2BAR siRNA): 54 ± 4%
maximum agonist effect, cAMP accumulation (NECA as 100%) ([1]; T24 cells, 50 nM A2BAR siRNA): 48 ± 6%
maximum agonist effect, cAMP accumulation (NECA as 100%) ([1]; T24 cells, 500 nM A2BAR siRNA): 36 ± 3%
maximum agonist effect, cAMP accumulation (NECA as 100%) ([1]; T24 cells, absence of A2BAR siRNA): 68 ± 7%
τ value (operational model), cAMP accumulation ([1]; T24 cells, siRNA silencing / overexpression methods): 1.19
Emax ([1]; T-24, read-out: Max effect cAMP (% of effect of NECA)): 62.9 ± 9.6%
EC50 [2]: 5620 ± 1240 nM
Kd [2]: 12300 nM
Emax ([2]; CHO, read-out: Max effect β-arrestin (% of effect of NECA)): 26.6 ± 3%
log (τ/KA) ([2]; β-Arrestin pathway): 4.30 ± 0.17
τ ([2]; β-Arrestin pathway, operational model, CHO mouse A2BAR): 0.25
Δlog (τ/Ka) ([2]; β-Arrestin pathway, relative to NECA): -1.43 ± 0.09
ΔΔlog (τ/KA) ([3]; β-Arrestin versus cAMP reference pathway): 2.16
Bias ([3]; β-Arrestin versus cAMP, bias ≫1 disfavors the pathway): 145
Emax [4]: 2.3 ± 1.5%
EC50 [5]: 68.8 ± 4.7 nM
Emax [5, 17]: 38.3 ± 5.9%
EC50 [6]: 296 ± 146 nM
Emax [6, 18]: 73 ± 12.1%
τ value (operational model), cAMP accumulation ([6]; HEK293 cells, siRNA silencing / overexpression methods): 1.54
ERK1/2 stimulation ([7]; T24 cells): did not produce any stimulation
Emax ([7]; T-24, read-out: Max effect ERK1/2 (% of effect of NECA)): -9.4 ± 3.8%
EC50 [8]: 45.3 ± 5.9 nM
Emax ([8]; PC-3, read-out: Max effect cAMP accumulation): 72.6 ± 5.1%
EC50 [9]: 6.14 ± 1.61 nM
Kd [9]: 705 nM
Emax [9, 18]: 102 ± 1%
log (τ/KA) ([9]; cAMP pathway): 8.15 ± 0.38
τ ([9]; cAMP pathway, operational model, A2BAR-overexpressing HEK293): 100
Δlog (τ/Ka) ([9]; cAMP pathway, relative to NECA): 0.73 ± 0.04
Emax [10]: -2.4 ± 1.7%
Max effect cAMP accumulation ([11]; NECA = 100): 98.3±3.7%
EC50 ([11]; read-out: EC50 cAMP accumulation): 7.9 ± 1.2 nM
EC50 [12]: 28.9 ± 4.1 nM
Kd [12]: 59.5 nM
log (τ/KA) ([12]; ERK1/2 pathway): 7.02 ± 0.44
τ ([12]; ERK1/2 pathway, operational model, A2BAR-overexpressing HEK293): 0.62
Δlog (τ/Ka) ([12]; ERK1/2 pathway, relative to NECA): 1.39 ± 0.17
ΔΔlog (τ/KA) ([12]; ERK1/2 versus cAMP reference pathway): -0.66
Bias ([12]; ERK1/2 versus cAMP, bias ≫1 disfavors the pathway): 0.22
Emax [12, 17]: 38.4 ± 3.3%
EC50 [13]: 113 ± 17 nM
Emax ([13]; 1321-N1, read-out: Max effect cAMP accumulation): 52.6 ± 3.1%
Glucose stimulated insulin secretion [14]: induced insulin secretion
EC50 [15]: 1100 ± 390 nM
Kd [15]: 1670 nM
log (τ/KA) ([15]; Calcium pathway): 4.66 ± 0.35
τ ([15]; Calcium pathway, operational model, A2BAR-overexpressing HEK293): 0.08
ΔΔlog (τ/KA) ([15]; Calcium versus cAMP reference pathway): 4.22
Bias ([15]; Calcium versus cAMP, bias ≫1 disfavors the pathway): 16600
Emax [16]: 9.8 ± 1.7%
